From paper PMC1500811, “Neofunctionalization in Vertebrates: The Example of Retinoic Acid Receptors” (PLoS Genetics, 2006) come the findings set out here.

Molecules are shown by their SMILES.

Assay [1] concerns T1, xRARβ.
T1 construct: gene rarb; LBD fused to Gal4 residues 1-147; in vitro translated for proteolysis
The assay can be described thus: Gal4-RAR(LBD) luciferase transactivation in Cos-1 cells. As to conditions: agonist; one collective range given for all chordate RARs. The class given is cell-based, Xenopus laevis.

For assay [2], the system named is T2, AncRAR.
T2 construct: maximum-likelihood reconstructed LBD fused to Gal4 residues 1-147
Described as above. As to conditions: agonist; one collective range given for all chordate RARs. The class given is cell-based, synthetic construct. From the text: Gal4-RAR(LBD) luciferase transactivation in Cos-1 cells on AncRAR | all the chordate RARs, including the reconstructed AncRAR, are able to transactivate in a dose-dependent manner

In assay [3] the target is T3, xRARα (Xenopus laevis, UniProt P51126).
T3 construct: gene rara; LBD fused to Gal4 residues 1-147; in vitro translated for proteolysis
T3 sequence (P51126 155-458 limits assumed): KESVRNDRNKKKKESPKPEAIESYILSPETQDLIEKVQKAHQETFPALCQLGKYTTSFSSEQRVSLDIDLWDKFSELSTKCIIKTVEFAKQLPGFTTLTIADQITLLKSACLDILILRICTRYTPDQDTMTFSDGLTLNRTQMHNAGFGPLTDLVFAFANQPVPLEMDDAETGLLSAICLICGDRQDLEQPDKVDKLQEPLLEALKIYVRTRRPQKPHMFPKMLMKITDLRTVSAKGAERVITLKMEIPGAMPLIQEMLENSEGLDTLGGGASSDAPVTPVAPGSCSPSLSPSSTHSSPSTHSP
Described as above. The class given is cell-based. Conditions: agonist; one collective range given for all chordate RARs.

Assay [4] concerns T4, zfRARγ.
T4 construct: gene rarga; LBD fused to Gal4 residues 1-147; in vitro translated for proteolysis
Described as above. Conditions: agonist; one collective range given for all chordate RARs. The assay is classed as cell-based, Danio rerio.

Assay [5] has as its target T5, xRARγ (Xenopus laevis, UniProt P28699).
T5 construct: gene rarg; LBD fused to Gal4 residues 1-147; in vitro translated for proteolysis
T5 sequence (P28699 166-476 limits assumed): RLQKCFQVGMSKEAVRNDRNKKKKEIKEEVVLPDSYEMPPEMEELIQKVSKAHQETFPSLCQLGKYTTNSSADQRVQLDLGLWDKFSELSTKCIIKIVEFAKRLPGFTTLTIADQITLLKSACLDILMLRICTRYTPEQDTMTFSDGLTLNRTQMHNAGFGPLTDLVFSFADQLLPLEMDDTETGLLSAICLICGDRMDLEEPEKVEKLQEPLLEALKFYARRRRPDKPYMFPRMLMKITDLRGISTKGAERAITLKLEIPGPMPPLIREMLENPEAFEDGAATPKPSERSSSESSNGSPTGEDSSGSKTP
Described as above. The class given is cell-based. As to conditions: agonist; one collective range given for all chordate RARs.

For assay [6], the system named is T6, zfRARα.
T6 construct: gene raraa; LBD fused to Gal4 residues 1-147; in vitro translated for proteolysis
The description is as above. Conditions: agonist; one collective range given for all chordate RARs. The class given is cell-based, Danio rerio.

Assay [7] has as its target T7, AmphiRAR (Branchiostoma floridae, UniProt Q8MX80). The assay is described as above. The class given is cell-based. Set-up: LBD from Ser154 fused to Gal4 residues 1-147. As to conditions: agonist; one collective range given for all chordate RARs.
The target of assay [8] is T8, PmRAR (Polyandrocarpa misakiensis, UniProt K7ZRU3).
T8 sequence (K7ZRU3 208-503 limits assumed): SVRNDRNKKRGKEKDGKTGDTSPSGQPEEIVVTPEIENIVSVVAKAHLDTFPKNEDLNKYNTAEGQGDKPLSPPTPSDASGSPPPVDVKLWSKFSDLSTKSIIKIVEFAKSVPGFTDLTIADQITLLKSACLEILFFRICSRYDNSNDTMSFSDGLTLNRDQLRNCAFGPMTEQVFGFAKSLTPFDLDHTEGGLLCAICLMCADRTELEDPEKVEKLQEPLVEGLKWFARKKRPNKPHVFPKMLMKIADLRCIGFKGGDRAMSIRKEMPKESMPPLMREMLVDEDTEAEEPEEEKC
The description is as above. Conditions: agonist; one collective range given for all chordate RARs. The assay is classed as cell-based. Set-up: gene Pm-RAR; LBD fused to Gal4 residues 1-147.

The target of assay [9] is T8, PmRAR. In words: limited trypsin proteolysis of in vitro-translated receptor. The class given is binding. Set-up: gene Pm-RAR; LBD fused to Gal4 residues 1-147; in vitro translated for proteolysis. Conditions: ligand 10^-4 to 10^-5 M, room temperature.
Assay [10] addresses T7, AmphiRAR. The assay is described as above. The class given is binding. As to conditions: ligand 10^-4 to 10^-5 M, room temperature. Set-up: LBD from Ser154 fused to Gal4 residues 1-147; in vitro translated for proteolysis.

T7 sequence (Q8MX80 entry or part of it): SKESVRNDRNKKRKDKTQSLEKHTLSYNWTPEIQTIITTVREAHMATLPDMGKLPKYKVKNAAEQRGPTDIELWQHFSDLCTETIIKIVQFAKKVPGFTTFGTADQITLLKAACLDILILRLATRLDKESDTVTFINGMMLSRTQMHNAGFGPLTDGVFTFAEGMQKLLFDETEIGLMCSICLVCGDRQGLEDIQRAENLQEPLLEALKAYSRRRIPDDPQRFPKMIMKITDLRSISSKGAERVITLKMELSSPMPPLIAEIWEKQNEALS

As for `CC1=C(/C=C/C(C)=C/C=C/C(C)=C/C(=O)O)C(C)(C)CCC1` [ATRA], the EC50 in [1], in [2], in assay [3], in assay [4], in assay [5] and in assay [6] was ~ 10^−9 to 10^−8 M in each case. Also, the EC50 in assay [7] and in assay [8] was ~ 10^−9 to 10^−8 M in each case.
Regarding `CC1(C)CC=C(c2ccccc2)c2cc(/C=C/c3ccc(C(=O)O)cc3Cl)ccc21` [BMS641], the “limited trypsin proteolysis of in vitro-translated receptor” value in [9] is “both PmRAR and AncRAR are able to bind weakly the β-specific retinoid (BMS641)”.
On to `CC1(C)C(=O)C(C)(C)c2cc(C(=O)Nc3ccc(C(=O)O)cc3)ccc21` [BMS753], for which the “limited trypsin proteolysis of in vitro-translated receptor” value in [10] is given as “It also binds the α-specific compound (BMS753) (Figure 4F)”.
